Test results: US20220257722A1, “COMPOSITIONS AND METHODS OF TREATING AND PREVENTING SYSTEMIC COMPLICATIONS OF ACUTE ILLNESS” (United States Government As Represented By The Department …, priority 2019, published 2022)

Test system: rat jejunal mucosa
Experiment: LPS mucosal-to-serosal transport in Ussing-chambered rat jejunal mucosa (LAL test)
Format: cell-based
Conditions: for inhibitory effect of GLP-2 on LPS transport during OA/TCA exposure: inhibitor serosal 5 min before GLP-2 100 nM + NVP-728 10 μM; for amount of LPS transport at t=15 min (prior to OA/TCA exposure), in presence of GLP-2 + NVP-728: inhibitor serosal before GLP-2 + NVP-728; for OA/TCA-augmented LPS transport (t=30-45 min): mucosal LPS 10 μg/ml + OA 30 mM/TCA 0.1 mM; for OA/TCA-augmented LPS transport (t=30-45 min) / LPS transport at t=15 min (LPS alone, absence of OA/TCA): drug added 10 or 15 min before LPS; for LPS transport at t=15 min (LPS alone, absence of OA/TCA): mucosal LPS 10 μg/ml
Method: Short-circuit current measurements in Ussing chambered preparations. Mucosa-submucosa preparations were prepared from the mid-jejunum (˜20 cm from the pyloric ring) by muscle stripping using fine forceps under a stereomicroscope. Two or four preparations were prepared from one animal. The tissue was then mounted between two hemi-sliders with an aperture=0.3 cm^2 (Physiologic Instruments, San Diego, Calif., USA). Chambers were bathed with serosal and luminal bathing solutions in a volume of 4 ml each, maintained at 37° C. using a water recirculating heating system. The serosal Krebs-Ringer solution contained (in mM) NaCl, 117; KCl, 4.7; MgCl2, 1.2; NaH2PO4, 1.2; CaCl2, 2.5; NaHCO3, 25; glucose, 11; and bubbled with 95% O2-5% CO2 to maintain pH at 7.4. The luminal bathing solution contained NaCl, 136; KCl, 2.6; CaCl2, 1.8; HEPES, 10 (pH 7.0); mannitol, 11; and bubbled with 100% O2. The tissues were short-circuited by a voltage clamp (VCC MC6, Physiologic Instruments) at zero potential difference with automatic compensation for solution resistance. Short-circuit current (Isc) was continuously measured with tissue conductance (Gt) and TEER (Ω·cm^2) determined every 20 sec in order to assess the tissue integrity during the LPS and lipid exposure. The current was recorded by the DataQ system (Physiologic Instruments). IND (10 μM) was added to the serosal bath to eliminate the effects of endogenous prostaglandin production. The tissues were stabilized for ˜30 min before the addition of test chemicals.
LPS movement from mucosal to serosal solution. LPS movement m-to-s was assessed using a LAL test kit (Pierce Chromogenic Endotoxin Quant Kit, Pierce Biotechnology, Rockford, Ill., USA), which eliminates non-specific detection of (1,3)-β-D-glucan, then reduces false-positive LPS measurements. After tissue stabilization, time was set as t=0 min. Fifty μl of the serosal solution was collected at 0 min as a blank sample, followed by collection at t=15, 30 and 45 min. At t=0 min, LPS (10 μg/ml) was added into the mucosal solution. Vehicle (PBS alone), TCA alone (0.1 mM) in PBS or OA (3, 10, 30 mM) with TCA (0.1 mM) in PBS was added into the mucosal solution at t=15 min. The tissues were pretreated with drugs 10 or 15 min before the addition of LPS (i.e. at t=−10 or −15 min). The collected serosal solutions were kept at −80° C. until use. LPS content in the serosal solutions was measured with the LAL test according to the manufacturer's protocol. The value of background at t=0 min was subtracted and the serosal LPS appearance was expressed as Δ[LPS] (EU/ml). In some experiments, FITC-LPS (10 μg/ml) was used instead of LPS. Serosal FITC-LPS content was assessed by FITC fluorescence intensity measurement using a multi-mode microplate reader (Synergy-2, BioTek Instruments, Inc., Winooski, Vt., USA). To detect macromolecule m-to-s movement across the mucosa, FD4 (0.1 mM) was applied into the mucosal bath and serosal FD4 content was assessed by FITC fluorescence intensity measurement.
Ussing chamber study: drug treatment. The following drugs were pretreated by addition to the mucosal (m) or serosal (s) bath 10 or 15 min before LPS addition to the mucosal bath: the lipid raft inhibitor MβCD (1 mM, m), the CD36 inhibitor SSO (0.1 mM, m), the muscarinic agonist CCh (10 μM, s), a competitive substrate for IAP (IAP inhibitor) GP (10 mM, m) (47), GLP-2 (100 nM, s), the dipeptidyl peptidase-4 (DPP4) inhibitor NVP-728 (10 μM, s) (36), the stable GLP-2 analog TDG (100 nM) (13), the insulin-like growth factor-1 (IGF-1) receptor tyrosine kinase inhibitor NVP-AEW-541 (10 μM, s) (22), the epidermal growth factor (EGF) tyrosine kinase inhibitor PD153035 (1 μM, s) (6), the nitric oxide (NO) synthase (NOS) inhibitor L-NAME (0.1 mM, s) and the selective VPAC1 antagonist PG97-269 (1 μM) (26).

| Compound | inhibitory effect of GLP-2 on LPS transport during OA/TCA exposure | amount of LPS transport at t=15 min (prior to OA/TCA exposure), in presence of GLP-2 + NVP-728 | OA/TCA-augmented LPS transport (t=30-45 min) | LPS transport at t=15 min (LPS alone, absence of OA/TCA) |
| --- | --- | --- | --- | --- |
| COC(=O)[C@@H](N)CCCNC(=N)N[N+](=O)[O-] [L-NAME, Nω-nitro-L-arginine methyl ester] | reversed | no effect |  |  |
| CCCCCCCC/C=C\CCCCCCCC(=O)ON1C(=O)CC(S(=O)(=O)O)C1=O (stereo not drawn) [SSO, sulfosuccinimidyl oleate] |  |  | abolished | no effect |
| CC[C@H](C)[C@H](NC(=O)[C@H](Cc1ccccc1)NC(=O)[C@H](CC(=O)O)NC(=O)[C@H](CCCNC(=N)N)NC(=O)[C@H](C)NC(=O)[C@H](C)NC(=O)[C@H](CC(C)C)NC(=O)[C@H](CC(N)=O)NC(=O)[C@H](CC(=O)O)NC(=O)[C@H](CC(C)C)NC(=O)[C@@H](NC(=O)[C@@H](NC(=O)[C@H](CC(N)=O)NC(=O)[C@H](CCSC)NC(=O)[C@H](CCC(=O)O)NC(=O)[C@H](CC(=O)O)NC(=O)[C@H](CO)NC(=O)[C@H](Cc1ccccc1)NC(=O)[C@H](CO)NC(=O)CNC(=O)[C@H](CC(=O)O)NC(=O)CNC(=O)[C@@H](N)Cc1c[nH]cn1)[C@@H](C)O)[C@@H](C)CC)C(=O)N[C@@H](CC(N)=O)C(=O)N[C@@H](Cc1c[nH]c2ccccc12)C(=O)N[C@@H](CC(C)C)C(=O)N[C@H](C(=O)N[C@@H](CCC(N)=O)C(=O)N[C@H](C(=O)N[C@@H](CCCCN)C(=O)N[C@H](C(=O)N[C@H](C(=O)N[C@@H](CC(=O)O)C(=O)O)[C@@H](C)O)[C@@H](C)CC)[C@@H](C)O)[C@@H](C)CC [TDG] |  |  | inhibited |  |
| [Ac-His^1, D-Phe^2, Lys^15, Arg^16, Leu^27]-VIP(1-7)-GRF(8-27) (HFDAVFTNSYRKVLKRLSARKLLQDIL; HELM PEPTIDE1{[ac].H.[dF].D.A.V.F.T.N.S.Y.R.K.V.L.K.R.L.S.A.R.K.L.L.Q.D.I.L.[am]}$$$$V2.0; SMILES CC[C@H](C)[C@H](NC(=O)[C@H](CC(=O)O)NC(=O)[C@H](CCC(N)=O)NC(=O)[C@H](CC(C)C)NC(=O)[C@H](CC(C)C)NC(=O)[C@H](CCCCN)NC(=O)[C@H](CCCNC(=N)N)NC(=O)[C@H](C)NC(=O)[C@H](CO)NC(=O)[C@H](CC(C)C)NC(=O)[C@H](CCCNC(=N)N)NC(=O)[C@H](CCCCN)NC(=O)[C@H](CC(C)C)NC(=O)[C@@H](NC(=O)[C@H](CCCCN)NC(=O)[C@H](CCCNC(=N)N)NC(=O)[C@H](Cc1ccc(O)cc1)NC(=O)[C@H](CO)NC(=O)[C@H](CC(N)=O)NC(=O)[C@@H](NC(=O)[C@H](Cc1ccccc1)NC(=O)[C@@H](NC(=O)[C@H](C)NC(=O)[C@H](CC(=O)O)NC(=O)[C@@H](Cc1ccccc1)NC(=O)[C@H](Cc1c[nH]cn1)NC(C)=O)C(C)C)[C@@H](C)O)C(C)C)C(=O)N[C@@H](CC(C)C)C(N)=O) [PG97-269] | reversed | no effect |  |  |
| methyl-β-cyclodextrin [MβCD] |  |  | inhibited | no effect |
